Laboratory results reported in ChEMBL document CHEMBL3228041, “Propiolaldehyde, a pargyline metabolite that irreversibly inhibits aldehyde dehydrogenase. Isolation from a hepatic microsomal system” (J Med Chem, 1979).
Active and inactive are the calls of the source. No cut-off for these calls is given here.

Tests used:
Rattus norvegicus [1] = species: Rattus norvegicus; assay: Induction of ethanol-derived blood acetaldehyde level in 0.1% phenobarbital for 8 days pretreated Sprague-Dawley rat measured after 2 hrs of acute ethanol dose; assay type: functional, organism-based
Rattus norvegicus [2] = species: Rattus norvegicus; assay: Inhibition of Sprague-Dawley rat liver mitochondrial aldehyde dehydrogenase at 1 mM measured immediately after compound addition at 38 degC in presence of 0.25 M sucrose relative to control
Rattus norvegicus [3] = species: Rattus norvegicus; assay: Inhibition of Sprague-Dawley rat liver mitochondrial aldehyde dehydrogenase assessed as complete inhibition at 1 mM measured after 5 to 10 mins at 38 degC in presence of 0.25 M sucrose
Rattus norvegicus [4] = species: Rattus norvegicus; assay: Inhibition of Sprague-Dawley rat liver mitochondrial aldehyde dehydrogenase at 1 mM after 5 mins at 25 degC in presence of 0.25 M sucrose relative to control
Rattus norvegicus [5] = species: Rattus norvegicus; assay: Inhibition of Sprague-Dawley rat liver mitochondrial aldehyde dehydrogenase at 1 mM after 5 mins at 0 degC in presence of 0.25 M sucrose relative to control
Rattus norvegicus [6] = species: Rattus norvegicus; assay: Irreversible inhibition of Sprague-Dawley rat liver mitochondrial aldehyde dehydrogenase at 1 mM incubated for 10 mins at 38 degC in presence of 0.25 M sucrose followed by compound washout measured relative to control
Rattus norvegicus [7] = species: Rattus norvegicus; assay: Inhibition of Sprague-Dawley rat liver mitochondrial aldehyde dehydrogenase at 1 mM at 38 degC in presence of 0.25 M sucrose relative to control; settings: TDE = time-dependent effect
Liver microsome = assay: Drug level in Sprague-Dawley rat liver microsomes treated with phenobarbital by GC-MS analysis in presence of NADPH; assay type: ADME

SMILES	Activity (Rattus norvegicus [1])	inhibition (Rattus norvegicus [2]) [%]	inhibition (Rattus norvegicus [3])	inhibition (Rattus norvegicus [4]) [%]	inhibition (Rattus norvegicus [5]) [%]	inhibition (Rattus norvegicus [6])	inhibition (Rattus norvegicus [7])	Drug metabolism (Liver microsome)
C#CCN(C)Cc1ccccc1	Active	–	–	–	–	–	–	–
C#CC=O [PROPYNAL]	–	43	Active	45	32	Active	tde	metabolite_detected
